In patent US9562059B2, “Anticancer maytansinoids with two fused macrocyclic rings” (priority 2013, dated 2017):
Entries after “also recorded” stand apart in the source; their conditions may differ. Like-named read-outs stand apart in the source and are kept apart here.

How the values were obtained:
[1] = test system: human oral epidermoid carcinoma KB cell line; test: Cell culture panel bioassay, KB cell line; format: cell-based; details: read-out: IC50 KB
Source text: (§1) Human oral epidermoid carcinoma KB cell line, human promyelocytic leukemia HL-60 cell line, human prostate carcinoma LNCaP cell line, human breast carcinoma MCF-7 cell line, human colon carcinoma Col2 cell line, and human lung carcinoma Lu1 cell line are activated from the frozen cells that are stored in Department of Medicinal Chemistry and Pharmacognosy, University of Illinois at Chicago, Chicago, Ill. Col2 cells are maintained in MEME medium. KB cells are maintained in DMEM medium. LNCaP cells are maintained in RPMI1640 medium with hormone-free 10% […] FBS (fetal bovine serum) supplemented with 0.1 nM testosterone, Lu1 cells are cultured in MEME medium. MCF-7 cells are maintained in MEME medium containing 10 mg/L of insulin. In each case, PSF (100 units/mL penicillin G, 100 μg/mL streptomycin sulfate, 250 ng/mL amphotericin B) is added. All media are supplemented with 10% heat-inactivated FBS.
(§2) Extracts, fractions, and compounds are tested in a human oral epidermoid carcinoma (KB) cell line using established protocols. In addition, all pure compounds are evaluated against the other human cancer cell lines comprising our cytotoxicity screening panel. Cytotoxicity assays involving colon (Col-2), prostate (LNCaP), and lung (Lu1) carcinoma cell lines are performed using sulforhodamine B according to established protocols.

Col2 cells = test: In vivo hollow fiber test, Col2 cells; parameters: species or system mice
Protocol: (§3) Hollow fiber tests are well known in the art for providing preliminary indications of therapeutic efficacy (Mi et al. (2002), J. Nat. Prod. 65: 842-850). In hollow fiber tests, human tumor cell lines currently employed in cell cultures are grown inside semipermeable hollow fibers to form heterogeneous solid tumor models. The hollow fibers containing the human tumor cells are implanted in the intraperitoneal or subcutaneous compartments of host mice, and the mice treated with the test compound of interest (Hollingshead et al, (1995), Life Sciences 57(2):131-141).
(§4) Loeseneriellin B isolated from Loeseneriella pauciflora (Celastraceae) is tested for in vivo hollow fiber study.

Lu1 cells = test: In vivo hollow fiber test, Lu1 cells; parameters: species or system mice
Protocol: as §3, §4

HCT116 cancer cells = test: HCT116 xenograft mouse model, tumor growth; format: in vivo, nude mice; details: for average tumor size (L×W×W) suppressed in comparison with the control group: after 21 days
Protocol: (§5) HCT116 cancer cells (2×10^7 cells in 100 μL suspension) are subcutaneously implanted in the rear flank of each mouse. After 10 days, solid tumors appear at the implanted sites. […] Daily injections at i.v. sites were scheduled for 21 days.
(§6) FIGS. 1 to 3 show the inhibition of HCT116-tumor xenograft growth by loeseneriellin B. The treatment started on the 10th day when the tumor size reached approximately 100 mm^3 (L×W×W).

[2] = HCT116 xenograft mouse model, body weight; format: in vivo, nude mice; details: 20 and 40 μg/kg i.v. daily for 3 weeks (FIG. 3)
Protocol: as §5, §6

[3] = test system: KB, Col-2, LNCaP, Lu-1, and MCF-7 cell lines; test: In vitro anti-tumor activity against the tumor cell line panel; format: cell-based, human; details: Lu-1, MCF-7
Protocol: The in vitro anti-tumor activity of isolated compounds (1-6) is evaluated against KB, Col-2, LNCaP, Lu-1, and MCF-7 cell lines. […] However, because of the much different stereochemistry, the bimacrocyclic maytansinoid may have a different anticancer therapeutic window from that of mono-macrocyclic maytansine derivatives.
as §1, with “In each case, PSF (100 units/mL penicillin G, 100 μg/mL streptomycin sulfate, 250 ng/mL amphotericin B) is added. All media are supplemented with 10% heat-inactivated FBS.” left out
Extracts, fractions, and compounds are tested in a human oral epidermoid carcinoma (KB) cell line using established protocols. In addition, all pure compounds are evaluated against the other human cancer cell lines comprising our cytotoxicity screening panel. […]

[4] = test system: human colon carcinoma Col2 cell line; test: Cell culture panel bioassay, Col2 cell line; format: cell-based
Source text: as §1, §2

[5] = test system: human lung carcinoma Lu1 cell line; test: Cell culture panel bioassay, Lu1 cell line; format: cell-based
Source text: as §1, §2

[6] = test system: human prostate carcinoma LNCaP cell line; test: Cell culture panel bioassay, LNCaP cell line; format: cell-based; details: for IC50: read-out: IC50 LNCaP
Source text: as §1, §2

MCF7 cells = test: In vivo hollow fiber test, MCF7 cells; parameters: species or system mice
Protocol: as §3, §4

[7] = test system: human breast carcinoma MCF-7 cell line; test: Cell culture panel bioassay, MCF-7 cell line; format: cell-based
Source text: as §1, §2

[8] = cited from earlier work
KB cells = details: Powell et al. (1982); cited from earlier work
[9] = test system: P388 lymphocytic leukemia; details: Powell et al. (1982); cited from earlier work
[10] = concentration required to inhibit cell growth by 50%, triplicate experiments
[11] = concentration required to inhibit cell growth by 50%, triplicate experiments, read-out: IC50 Col2
[12] = concentration required to inhibit cell growth by 50%, triplicate experiments, read-out: IC50 Lu1
[13] = concentration required to inhibit cell growth by 50%, triplicate experiments, read-out: IC50 MCF-7

Molecule: COc1cc2cc(c1Cl)N1CC(C)C(C)(O)C(=O)N[C@@H](C)C(=O)O[C@@H](CC1=O)[C@]1(C)OC1[C@H](C)[C@@H]1C[C@@](O)(NC(=O)O1)[C@H](OC)/C=C/C=C(\C)C2 (some centres unmarked) [Compound 1, Loeseneriellin B]
- IC50 ([1]; Homo sapiens, KB): 0.15 nM
- Inhibition (%) (Col2 cells; Col2-IP, dose 0.05 mg/kg, listed as Loeseneriellin B): 65.5%
- Inhibition (%) (Col2 cells; Col2-IP, dose 0.05 mg/kg, listed as loeseneriellin B): more than 65%
- Inhibition (%) (Col2 cells; Col2-IP, dose 0.1 mg/kg): 70.5%
- Inhibition (%) (Col2 cells; Col2-SC, dose 0.05 mg/kg): 0%
- Inhibition (%) (Col2 cells; Col2-SC, dose 0.1 mg/kg): 1.4%
- Inhibition (%) (Lu1 cells; Lu1-IP, dose 0.05 mg/kg): 34.9%
- Inhibition (%) (Lu1 cells; Lu1-IP, dose 0.1 mg/kg): 20.9%
- Inhibition (%) (Lu1 cells; Lu1-SC, dose 0.05 mg/kg): 0%
- Inhibition (%) (Lu1 cells; Lu1-SC, dose 0.1 mg/kg): 0%
- excised tumor weights, % inhibition versus control (HCT116 cancer cells; high dose 40 μg/kg i.v. daily for 3 weeks (FIG. 2)): 41.7%
- average tumor size (L×W×W) suppressed in comparison with the control group (HCT116 cancer cells; high dose 40 μg/kg i.v. daily): 41.7%
- excised tumor weights, % inhibition versus control (HCT116 cancer cells; low dose 20 μg/kg i.v. daily for 3 weeks (FIG. 2)): 38.3%
- average tumor size (L×W×W) suppressed in comparison with the control group (HCT116 cancer cells; low dose 20 μg/kg i.v. daily): 38.3%
- body weights of mice [2]: No apparent weight loss; also recorded: insignificant change in body weights
- bioactivity compared with maytansine (3) [3]: comparable bioactivity to that of maytansine
- IC50 ([4]; Homo sapiens, Col2, read-out: IC50 Col2): 0.2 nM
- IC50 ([5]; Homo sapiens, Lu1, read-out: IC50 Lu1): 0.71 nM
- IC50 ([6]; Homo sapiens, LNCaP): 0.25 nM
- Inhibition (%) (MCF7 cells; MCF7-IP, dose 0.05 mg/kg, listed as Loeseneriellin B): 57.2%
- Inhibition (%) (MCF7 cells; MCF7-IP, dose 0.05 mg/kg, listed as loeseneriellin B): more than 65%
- Inhibition (%) (MCF7 cells; MCF7-IP, dose 0.1 mg/kg): 75.5%
- Inhibition (%) (MCF7 cells; MCF7-IP, dose 0.2 mg/kg): 84.6%
- Inhibition (%) (MCF7 cells; MCF7-SC, dose 0.05 mg/kg): 0%
- Inhibition (%) (MCF7 cells; MCF7-SC, dose 0.1 mg/kg): 0%
- Inhibition (%) (MCF7 cells; MCF7-SC, dose 0.2 mg/kg): 40.1%
- IC50 ([7]; Homo sapiens, MCF7, read-out: IC50 MCF-7): 0.68 nM

Molecule: COc1cc2cc(c1Cl)N(C)C(=O)C[C@H](OC(=O)[C@H](C)N(C)C(C)=O)[C@]1(C)O[C@H]1[C@H](C)[C@@H]1C[C@@](O)(NC(=O)O1)[C@H](OC)/C=C/C=C(\C)C2 [Compound 3, Maytansine]
- IC50 [1, 10]: 0.17 nM
- IC50 [4, 11]: 0.19 nM
- IC50 [5, 12]: 0.77 nM
- systemic toxicity in human clinical trials [8]: unacceptable systemic toxicity
- IC50 [6, 10]: 0.32 nM
- IC50 [7, 13]: 0.69 nM

Molecule: CCC(=O)N(C)[C@@H](C)C(=O)O[C@H]1CC(=O)N(C)c2cc(cc(OC)c2Cl)C/C(C)=C/C=C[C@@H](OC)[C@@]2(O)C[C@H](OC(=O)N2)[C@@H](C)[C@@H]2O[C@@]12C [Compound 4, Maytanprine]
- IC50 [1, 10]: 0.061 nM
- IC50 [4, 11]: 0.16 nM
- IC50 [5, 12]: 0.35 nM
- IC50 [6, 10]: 0.16 nM
- IC50 [7, 13]: 0.17 nM

Molecule: COc1cc2cc(c1Cl)N(C)C(=O)C[C@H](OC(=O)C(C)N(C)C(=O)C(C)C)[C@]1(C)O[C@H]1[C@H](C)[C@@H]1C[C@@](O)(NC(=O)O1)[C@H](OC)/C=C/C=C(\C)C2 (some centres unmarked) [Compound 5, Maytanbutine]
- IC50 [1, 10]: 0.05 nM
- IC50 [4, 11]: 0.061 nM
- IC50 [5, 12]: 0.13 nM
- IC50 [6, 10]: 0.054 nM
- IC50 [7, 13]: 0.13 nM

Molecule: COc1cc2cc(c1Cl)N(C)C(=O)CC(OC(=O)C(C)N(C)C(=O)CC(C)C)C1(C)OC1C(C)C1CC(O)(NC(=O)O1)C(OC)/C=C/C=C(\C)C2 (centres unmarked) [Compound 6, Maytanvaline]
- IC50 [1, 10]: 0.11 nM
- IC50 [4, 11]: 0.15 nM
- IC50 [5, 12]: 0.69 nM
- IC50 [6, 10]: 0.16 nM
- IC50 [7, 13]: 0.27 nM

Molecule: CC(=O)O[C@H]1C(=O)[C@@]2(C)[C@H]([C@H](OC(=O)c3ccccc3)[C@]3(O)C[C@H](OC(=O)[C@H](O)[C@@H](NC(=O)c4ccccc4)c4ccccc4)C(C)=C1C3(C)C)[C@]1(OC(C)=O)CO[C@@H]1C[C@@H]2O [Paclitaxel]
- Inhibition (%) (Col2 cells; Col2-SC, dose 2.0 mg/kg): 6.9%
- Inhibition (%) (Lu1 cells; Lu1-IP, dose 2.0 mg/kg): 39.9%
- Inhibition (%) (Lu1 cells; Lu1-SC, dose 2.0 mg/kg): 0%
- excised tumor weights, % inhibition versus control (HCT116 cancer cells; 5 mg/kg i.v. daily for 3 weeks (FIG. 2)): 37.6%
- inhibition at 0.02 µg/mL ([4]; Homo sapiens, Col2, at 20 ng/mL, positive control, read-out: inhibition against Col2): 76%
- inhibition at 0.02 µg/mL ([5]; Homo sapiens, Lu1, at 20 ng/mL, positive control, read-out: inhibition against Lu-1): 56%
- inhibition at 0.02 µg/mL ([6]; Homo sapiens, LNCaP, at 20 ng/mL, positive control, read-out: inhibition against LNCaP): 89%
- Inhibition (%) (MCF7 cells; MCF7-IP, dose 2.0 mg/kg): 71.3%
- Inhibition (%) (MCF7 cells; MCF7-SC, dose 2.0 mg/kg): 0%
- inhibition at 0.02 µg/mL ([7]; Homo sapiens, MCF7, at 20 ng/mL, positive control, read-out: inhibition against MCF-7): 71%

Molecule: COc1cc2cc(c1Cl)N1CCC(C)(O)C(=O)N[C@@H](C)C(=O)O[C@@H](CC1=O)[C@]1(C)OC1[C@H](C)[C@@H]1C[C@@](O)(NC(=O)O1)[C@H](OC)/C=C/C=C(\C)C2OC (some centres unmarked) [treflorine]
- antitumor activity against KB cells (KB cells): retain antitumor activity
- antitumor activity against P388 lymphocytic leukemia [9]: retain antitumor activity

Molecule: COc1cc2cc(c1Cl)N1CC(O)C(C)(O)C(=O)N[C@@H](C)C(=O)O[C@@H](CC1=O)[C@]1(C)OC1[C@H](C)[C@@H]1C[C@@](O)(NC(=O)O1)[C@H](OC)/C=C/C=C(\C)C2OC (some centres unmarked) [trenudine]
- antitumor activity against KB cells (KB cells): retain antitumor activity
- antitumor activity against P388 lymphocytic leukemia [9]: retain antitumor activity

Molecule: CC[C@]1(O)C[C@@H]2CN(CCc3c([nH]c4ccccc34)[C@@](C(=O)OC)(c3cc4c(cc3OC)N(C)[C@H]3[C@@](O)(C(=O)OC)[C@H](OC(C)=O)[C@]5(CC)C=CCN6CC[C@]43[C@@H]65)C2)C1 [vinblastine, Vinblastine]
- inhibition at 0.04 µg/mL ([4]; Homo sapiens, Col2, at 40 ng/mL, positive control, read-out: inhibition against Col2): 87%
- inhibition at 0.04 µg/mL ([5]; Homo sapiens, Lu1, at 40 ng/mL, positive control, read-out: inhibition against Lu-1): 54%
- inhibition at 0.04 µg/mL ([6]; Homo sapiens, LNCaP, at 40 ng/mL, positive control, read-out: inhibition against LNCaP): 89%
- inhibition at 0.04 µg/mL ([7]; Homo sapiens, MCF7, at 40 ng/mL, positive control, read-out: inhibition against MCF-7): 70%

Molecule: Loeseneriellin A [Compound 2]
- IC50 [1, 10]: 0.1 nM
- IC50 [4, 11]: 0.18 nM
- IC50 [5, 12]: 0.38 nM
- IC50 [6, 10]: 0.18 nM
- IC50 [7, 13]: 0.19 nM
